Measured values taken from ChEMBL document CHEMBL1145099, “Aloisines, a new family of CDK/GSK-3 inhibitors. SAR study, crystal structure in complex with CDK2, enzyme selectivity, and cellular effects” (J Med Chem, 2003).

Legend:
[1] = biological target: Cyclin-dependent kinase 5/CDK5 activator 1 (Homo sapiens, UniProt Q00535); test: Inhibitory activity against recombinant mammalian cyclin-dependent kinase 5 (p35 NCK5a) expressed in Escherichia coli
[2] = biological target: Glycogen synthase kinase-3 beta (Homo sapiens, UniProt P49841); test: Inhibition of glycogen synthase kinase-3 beta, purified from porcine brain or expressed in and purified from insect Sf9 cells; format: cell-based, Sus scrofa
[3] = biological target: CDK1/cyclin B (Marthasterias glacialis)

Chain of Cyclin-dependent kinase 5/CDK5 activator 1 (Q00535 whole entry): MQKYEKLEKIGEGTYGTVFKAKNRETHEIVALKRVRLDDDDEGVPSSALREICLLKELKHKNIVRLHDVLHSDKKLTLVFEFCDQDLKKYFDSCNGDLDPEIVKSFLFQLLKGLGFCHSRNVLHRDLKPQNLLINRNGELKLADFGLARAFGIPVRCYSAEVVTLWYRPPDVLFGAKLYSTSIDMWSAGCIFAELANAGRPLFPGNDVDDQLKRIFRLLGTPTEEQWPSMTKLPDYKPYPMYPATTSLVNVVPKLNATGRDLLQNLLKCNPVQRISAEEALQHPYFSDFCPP
Chain of Cyclin-dependent kinase 5/CDK5 activator 1 (Q15078 whole entry, further chain): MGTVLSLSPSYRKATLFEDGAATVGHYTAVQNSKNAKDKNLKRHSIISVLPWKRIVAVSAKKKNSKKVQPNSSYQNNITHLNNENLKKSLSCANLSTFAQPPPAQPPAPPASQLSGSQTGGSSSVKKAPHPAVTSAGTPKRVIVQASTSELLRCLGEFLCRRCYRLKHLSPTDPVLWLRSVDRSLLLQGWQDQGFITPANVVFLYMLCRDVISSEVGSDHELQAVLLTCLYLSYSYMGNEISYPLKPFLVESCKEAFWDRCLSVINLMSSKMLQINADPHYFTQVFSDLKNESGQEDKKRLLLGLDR
Chain of Glycogen synthase kinase-3 beta (P49841 whole entry): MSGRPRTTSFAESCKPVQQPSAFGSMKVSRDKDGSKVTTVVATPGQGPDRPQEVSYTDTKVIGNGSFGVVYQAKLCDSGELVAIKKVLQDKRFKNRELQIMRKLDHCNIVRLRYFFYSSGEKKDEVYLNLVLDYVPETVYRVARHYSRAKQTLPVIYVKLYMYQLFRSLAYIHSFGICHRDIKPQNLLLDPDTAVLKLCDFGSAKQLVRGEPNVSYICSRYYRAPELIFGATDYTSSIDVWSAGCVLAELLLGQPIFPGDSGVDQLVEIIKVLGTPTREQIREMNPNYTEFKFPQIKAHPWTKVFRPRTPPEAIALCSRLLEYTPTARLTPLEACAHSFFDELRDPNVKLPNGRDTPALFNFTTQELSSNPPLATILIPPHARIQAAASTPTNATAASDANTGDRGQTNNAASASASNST

Work on `CCCCCCCc1c(-c2ccc(OC)cc2)[nH]c2nccnc12` yielded an IC50 [1] of over 100 µM, an IC50 [2] of over 10000 nM and an IC50 [3] of 7 µM.
With `Clc1ccc(-c2cc3[nH]ccnc-3n2)cc1` the IC50 [3] was 1.8 µM.
`COc1ccccc1-c1cc2[nH]ccnc-2n1` was tested, and the IC50 [1] was 23 µM, the IC50 [2] was 3300 nM and the IC50 [3] was 20 µM.
Compound `c1ccc(-c2cc3[nH]c4ccccc4nc-3n2)cc1` has an IC50 [1] of over 100 µM, an IC50 [2] of over 100000 nM and an IC50 [3] of over 100 µM.
For `CCCCc1c(-c2ccc(OC)cc2)[nH]c2nccnc12` [ALOISINE], the IC50 [1] was 1.5 µM and the IC50 [2] was 920 nM.
`C=CCc1c(-c2ccc(OC)cc2)[nH]c2nccnc12` gave an IC50 [1] of 2 µM, an IC50 [2] of 600 nM and an IC50 [3] of 1 µM.
Compound `Clc1ccc(C2(c3cc4[nH]ccnc-4n3)CC2)cc1` has an IC50 [1] of 100 µM, an IC50 [2] of 1000 nM and an IC50 [3] of 30 µM.
Compound `c1coc(-c2cc3[nH]ccnc-3n2)c1` has an IC50 [1] of 9.3 µM, an IC50 [2] of 15000 nM and an IC50 [3] of 12 µM.
`COc1ccc(-c2cc3[nH]ccnc-3n2)cc1` gave an IC50 [1] of 4 µM, an IC50 [2] of 1100 nM and an IC50 [3] of 2 µM.
Work on `Cc1c[nH]c2cc(-c3ccccc3)nc-2n1` yielded an IC50 [1] of 100 µM, an IC50 [2] of over 100000 nM and an IC50 [3] of 69 µM.
`COc1ccc(-c2[nH]c3nccnc3c2CC2CCCCC2)cc1` was tested, and the IC50 [1] was over 100 µM, the IC50 [2] was 6800 nM and the IC50 [3] was 5 µM.
`COc1ccc(-c2[nH]c3nccnc3c2C)cc1` was tested, and the IC50 [1] was 0.8 µM, the IC50 [2] was 460 nM and the IC50 [3] was 0.3 µM.
With `c1c[nH]c2cc(-c3ccc(C4OCCO4)cc3)nc-2n1` the IC50 [1] was 15 µM, the IC50 [2] was 20000 nM and the IC50 [3] was 8 µM.
For `Brc1ccc(-c2cc3[nH]ccnc-3n2)cc1`, the IC50 [1] was over 100 µM and the IC50 [2] was 6000 nM.
For `COc1ccc(-c2[nH]c3nccnc3c2CC2CC2)cc1`, the IC50 [1] was over 100 µM, the IC50 [2] was 1100 nM and the IC50 [3] was 1 µM.
Work on `COc1ccc(-c2cc3ccc[nH]c-3n2)cc1` yielded an IC50 [3] of 60 µM.
`c1ccc(Cc2c(-c3ccccc3)[nH]c3nccnc23)cc1` gave an IC50 [1] of over 100 µM, an IC50 [2] of 1000 nM and an IC50 [3] of 2 µM.
`CCCc1c(-c2ccc(O)cc2)[nH]c2nccnc12` gave an IC50 [1] of 1.2 µM, an IC50 [2] of 1800 nM and an IC50 [3] of 25 µM.
Compound `c1c[nH]c2cc(-c3ccsc3)nc-2n1` has an IC50 [1] of 1 µM, an IC50 [2] of 800 nM and an IC50 [3] of 2.3 µM.
`Clc1ccc(-c2[nH]c3nccnc3c2CC2CCCCC2)cc1` showed an IC50 [1] of over 100 µM, an IC50 [2] of 8000 nM and an IC50 [3] of 10 µM.
In the case of `Oc1ccc(-c2cc3[nH]ccnc-3n2)cc1`, the IC50 [1] is reported as 1 µM, the IC50 [2] is reported as 1200 nM and the IC50 [3] is reported as 1.2 µM.
For `Oc1cccc(-c2cc3[nH]ccnc-3n2)c1`, the IC50 [3] was 2.5 µM.
`CCCc1c(-c2ccc(OC)cc2)[nH]c2nccnc12` gave an IC50 [1] of 0.5 µM, an IC50 [2] of 400 nM and an IC50 [3] of 0.4 µM.
For `CN(C)c1ccc(-c2cc3[nH]ccnc-3n2)cc1`, the IC50 [1] was over 100 µM, the IC50 [2] was 12000 nM and the IC50 [3] was 20 µM.
`Clc1ccc(-c2[nH]c3nccnc3c2Cc2ccccc2)cc1` showed an IC50 [1] of over 100 µM and an IC50 [2] of 6800 nM.
With `FC(F)(F)c1ccc(-c2cc3[nH]ccnc-3n2)cc1` the IC50 [1] was over 100 µM, the IC50 [2] was 7200 nM and the IC50 [3] was 6 µM.
Compound `Oc1ccccc1-c1cc2[nH]ccnc-2n1` has an IC50 [1] of 3 µM, an IC50 [2] of 6500 nM and an IC50 [3] of 2.5 µM.
`Clc1cc(Cl)cc(-c2cc3[nH]ccnc-3n2)c1` was tested, and the IC50 [1] was over 100 µM, the IC50 [2] was over 100000 nM and the IC50 [3] was over 100 µM.
`COc1ccc(-c2[nH]c3nccnc3c2CCCCl)cc1` was tested, and the IC50 [1] was 3 µM and the IC50 [2] was 2500 nM.
`N#Cc1ccc(-c2cc3[nH]ccnc-3n2)cc1` showed an IC50 [1] of 13 µM, an IC50 [2] of 4800 nM and an IC50 [3] of 3 µM.
In the case of `Cc1c(-c2ccc(OS(=O)(=O)N(C)C)cc2)[nH]c2nccnc12`, the IC50 [1] is reported as 0.9 µM, the IC50 [2] is reported as 500 nM and the IC50 [3] is reported as 0.7 µM.
`c1ccc(-c2cc3[nH]ccnc-3n2)nc1` was tested, and the IC50 [1] was 53 µM, the IC50 [2] was 15000 nM and the IC50 [3] was 21 µM.
`Fc1ccc(-c2cc3[nH]ccnc-3n2)cc1` was tested, and the IC50 [1] was 1 µM, the IC50 [2] was 1900 nM and the IC50 [3] was 2.3 µM.
Work on `Cc1c(-c2ccc(Cl)cc2)[nH]c2nccnc12` yielded an IC50 [1] of 5 µM and an IC50 [2] of 1700 nM.
In the case of `CCCCc1c(-c2ccc(Cl)cc2)[nH]c2nccnc12`, the IC50 [1] is reported as over 100 µM, the IC50 [2] is reported as 5900 nM and the IC50 [3] is reported as 0.2 µM.
For `Cn1c(-c2ccccc2)cc2nccnc21`, the IC50 [2] was over 100000 nM and the IC50 [3] was 100 µM.
Work on `c1ccc(-c2cc3[nH]ccnc-3n2)cc1` yielded an IC50 [1] of 4 µM, an IC50 [2] of 2300 nM and an IC50 [3] of 5 µM.
`Cc1c(C2(c3ccc(Cl)cc3)CC2)[nH]c2nccnc12` showed an IC50 [1] of 100 µM and an IC50 [2] of 18000 nM.
In the case of `Cc1c(-c2ccc(O)cc2)[nH]c2nccnc12`, the IC50 [1] is reported as 0.2 µM, the IC50 [2] is reported as 520 nM and the IC50 [3] is reported as 0.25 µM.
Work on `c1ccc2c(-c3cc4[nH]ccnc-4n3)cccc2c1` yielded an IC50 [1] of 80 µM, an IC50 [2] of 27000 nM and an IC50 [3] of over 100 µM.
With `COc1cc(OC)cc(-c2cc3[nH]ccnc-3n2)c1` the IC50 [1] was over 100 µM, the IC50 [2] was 60000 nM and the IC50 [3] was 100 µM.
`COc1cc(-c2cc3[nH]ccnc-3n2)cc(OC)c1OC` showed an IC50 [1] of over 100 µM, an IC50 [2] of 85000 nM and an IC50 [3] of 100 µM.
Work on `COc1ccc(-c2[nH]c3nccnc3c2C)cc1OC` yielded an IC50 [1] of 1 µM, an IC50 [2] of 2000 nM and an IC50 [3] of 1.1 µM.
Work on `Oc1ccc(-c2[nH]c3nccnc3c2CC2CC2)cc1` yielded an IC50 [1] of over 100 µM, an IC50 [2] of 3000 nM and an IC50 [3] of 50 µM.
`CC(C)c1c(-c2ccc(Cl)cc2)[nH]c2nccnc12` gave an IC50 [1] of 13 µM, an IC50 [2] of 750 nM and an IC50 [3] of 0.85 µM.
`c1csc(-c2cc3[nH]ccnc-3n2)c1` was tested, and the IC50 [1] was 2 µM, the IC50 [2] was 1200 nM and the IC50 [3] was 7 µM.
`COc1ccc(-c2[nH]c3nccnc3c2C(C)C)cc1` gave an IC50 [1] of 2 µM and an IC50 [2] of 500 nM.
In the case of `COc1cccc(-c2cc3[nH]ccnc-3n2)c1`, the IC50 [1] is reported as 10 µM, the IC50 [2] is reported as 3200 nM and the IC50 [3] is reported as 13 µM.
`Cc1ccc(-c2cc3[nH]ccnc-3n2)cc1` was tested, and the IC50 [1] was 10 µM, the IC50 [2] was 2600 nM and the IC50 [3] was 3 µM.
